The values that follow are results of earlier work, collected in patent US20120283197A1, “Compositions Comprising a Glucose Anti-Metabolite, BHA, and/or BHT” (priority 2011, published 2012).

For data set [1] the following is noted: mice, dogs, and other species.
The conditions of data set [2]: rats, fed for 18 months, 140 mg/Kg body weight per day.
In data set [3] the test system is hexokinase or other glycolytic enzymes. To be noted: extracts of mouse lung.
The next data set has as its system adipocytes. The following applies: rats, fed for 18 months, 140 mg/Kg body weight per day.
The subject of data set [4] is cultured insulin secreting cells.

Regarding `O=C(CO)[C@@H](O)[C@@H](O)[C@H](O)[C@H](O)CO` [Mannoheptulose, mannoheptulose], the “plasma insulin levels and/or insulin sensitivity” value in data set [1] was “lower plasma insulin levels and/or increase insulin sensitivity”.
As to `Cc1cc(C(C)(C)C)c(O)c(C(C)(C)C)c1` [BHT, butylated hydroxytoluene], the insulin sensitivity entry in data set [2] was “increased insulin sensitivity”. Also, the “effect on hexokinase or other glycolytic enzymes” value in data set [3] is given as “no effect”. Besides, the “age-related reduction in insulin-stimulated glucose transport in adipocytes” value with adipocytes is “partially ameliorated”.
For `COc1ccc(O)c(C(C)(C)C)c1` [BHA, butylated hydroxyanisole], in data set [4], the “alloxan-induced increase in insulin secretion” value is given as “prevent the alloxan-induced increase in insulin secretion” and the “negative effects of alloxan” value is given as “blocked the negative effects of alloxan”.
